Consider six compounds from patent publication US20100247579A1, “THERAPEUTIC AGENT FOR CANCER” (priority 2007, published 2010).

The test system of test [1] is expanded lymphocytes derived from a human healthy donor. In words: Resistance to anticancer agents, WST-1 GI50 on cultured lymphocytes of a human healthy donor. It counts as cell-based. The note with it: for GI50: Homo sapiens, Lymphocyte. On the procedure: (§1) On the other hand, the IL-2/5HRPMI was added to the control group in 50 μL/well each.
(§2) These culture plates were incubated at 37° C. for 20 hours in the presence of 5% CO2. After the incubation, WST-1 (Premix WST-1 Cell Proliferation Assay System, manufactured by Takara Bio Inc.) was added in 20 μL/well each to each well of the plate, and incubated in the presence of 5% CO2 at 37° C. for 4 hours. The plates after the incubation were centrifuged at 500×g at room temperature for 5 minutes. After the centrifugation, 100 μL of the supernatant was collected from each well, and the absorbance was measured at an absorption wavelength of 450 nm and a control wavelength of 630 nm [hereinafter referred to as the absorbance (450 nm-630 nm)] using a microplate reader (manufactured by Bio-Rad Laboratories, Inc., Model Number 680XR), and then the specific absorbance (450 nm-630 nm) was calculated according to the following formula.
(§3) Specific absorbance (450 nm-630 nm)=Absorbance of Test Cell Addition Group (450 nm-630 nm)−Absorbance of Control Group (450 nm-630 nm) Formula 2: […]
Here, a group where only OKT3 was immobilized to the culture equipment in the expansion of the lymphocytes was also set.
However, in the case of paclitaxel, a human AB type serum was used as a solvent for dilution, and for other drugs, 5HRPMI was used for dilution.

Test [2] relates to lymphocytes derived from cancer patient No. PT009 expanded with OKT3 and CH-296. In words: Resistance to anticancer agents, WST-1 GI50 on cultured lymphocytes of cancer patient No. PT009. It counts as cell-based, human. The conditions noted are these: day 10 of culture with OKT3 and CH-296, 20 hours with drug. How it is done:
After that, the suspension was stained by the trypan blue staining method to calculate the viable cell count, and then subjected to each experiment.
as §1, §2, §3

The mark [3] stands for this setting: healthy donor lymphocytes expanded with OKT3 + CH-296, read-out: GI50 (μg/mL) Initial Stimulation OKT3 + CH-296.
Setting [4] is: healthy donor lymphocytes expanded with OKT3 alone, read-out: GI50 (μg/mL) Initial Stimulation OKT3.
The mark [5] stands for this setting: Homo sapiens, Lymphocyte, read-out: GI50.

≈ marks a conversion by molar mass, not a printed value. Where a name gives a salt, the structure may show the parent alone. Read-outs that look alike come from different tables or passages of the source.

As to `N.N.O=C([O-])C1(C(=O)[O-])CCC1.[Pt+2]` [Carboplatin, carboplatin], in test [1] (healthy donor lymphocytes expanded with OKT3 + CH-296), the “GI50 (μg/mL) Initial Stimulation OKT3 + CH-296” value is 161.31 µg/mL. The “GI50 (μg/mL) Initial Stimulation OKT3” value in test [1] (healthy donor lymphocytes expanded with OKT3 alone) was 116.16 µg/mL. Besides, in test [2], the “GI50” value stood at 215.5 µg/mL.

On to `N.N.[Cl][Pt][Cl]` [Cisplatin, cisplatin], for which the “GI50” value in test [2] worked out at 3.7 µg/mL.

In the case of `COc1cccc2c1C(=O)c1c(O)c3c(c(O)c1C2=O)C[C@@](O)(C(=O)CO)C[C@@H]3O[C@H]1C[C@H](N)[C@H](O)[C@H](C)O1` [Doxorubicin Hydrochloride, doxorubicin hydrochloride], the GI50 was found to be 0.41 µg/mL in test [1] (setting [3]), 0.25 µg/mL in test [1] (setting [4]) and 0.5 µg/mL in test [2] (setting [5]).

In the case of `O=c1[nH]cc(F)c(=O)[nH]1` [Fluorouracil, fluorouracil], the values for the GI50 in test [1] (setting [3]), in test [1] (setting [4]) and in test [2] (setting [5]) were 3270 µg/mL, 2290 µg/mL (≈ 17.6 mM) and 639 µg/mL (≈ 4.91 mM), respectively.

For the compound `CC(=O)O[C@H]1C(=O)[C@@]2(C)[C@H]([C@H](OC(=O)c3ccccc3)[C@]3(O)C[C@H](OC(=O)[C@H](O)[C@@H](NC(=O)c4ccccc4)c4ccccc4)C(C)=C1C3(C)C)[C@]1(OC(C)=O)CO[C@@H]1C[C@@H]2O` [Paclitaxel, paclitaxel], the GI50 was determined as 39.7 µg/mL in test [1] (setting [3]) and 34.1 µg/mL (≈ 0.0399 mM) in test [1] (setting [4]).

Take `CC[C@]1(O)C[C@H]2CN(CCc3c([nH]c4ccccc34)[C@@](C(=O)OC)(c3cc4c(cc3OC)N(C=O)[C@H]3[C@@](O)(C(=O)OC)[C@H](OC(C)=O)[C@]5(CC)C=CCN6CC[C@]43[C@@H]65)C2)C1` [Vincristine Sulfate, vincristine sulfate]: the results for the GI50 in test [1] (setting [3]), in test [1] (setting [4]) and in test [2] (setting [5]) were 24.3 µg/mL, 4.42 µg/mL and 0.2 µg/mL, respectively.
